From ChEMBL document CHEMBL1137619, “Synthesis, structure-activity relationship and in vivo antiinflammatory efficacy of substituted dipiperidines as CCR2 antagonists” (J Med Chem, 2007)

Experiments:
Type in all cases: ADME, organism-based
Settings in all cases: in vivo
[1] = Bioavailability in rat at 10 mg/kg, po
[2] = Bioavailability in rat at 10 mg/kg, ip
[3] = Half life in rat at 10 mg/kg, po; set-up: dose 10 mg/kg, route oral

`O=C(O)[C@H](C1CCN(C(=O)/C=C/c2cc(F)c(F)c(F)c2)CC1)N1CCC(c2c[nH]c3ccccc23)CC1` showed a bioavailability [1] of 15%, a bioavailability [2] of 100% and a half-life [3] of 7 h.
